From patent publication US20150038493A1, “COMPOUNDS THAT TRAP ALPHA-OXOALDEHYDES AND ALPHA-BETA-UNSATURATED ALDEHYDES, META-COMPOUNDS CONTAINING SUCH COMPOUNDS, AND USE OF SAID COMPOUNDS IN TREATING ILLNESSES RELATED TO THE ACCUMULATION OF AGES AND ALES” (PHARMAMENS, priority 2011, published 2015)
Peptide text beside a SMILES is read from it.

How the values were obtained:
[1] = tested on: advanced glycation end-products (AGEs) on human albumin; test: Inhibition of AGE formation: fluorescence of human albumin incubated with glucose; type: biochemical; details: human albumin 50 g/l, glucose 500 mM, compound 50 mM, 37° C., 20 days; ex 370 nm, em 440 nm
Protocol: Human albumin at physiological concentration (50 g/l) is incubated with glucose (500 mM in phosphate buffer at 100 mM, pH=7.4) at 37° C. for 20 days in the presence or absence of the compounds tested (50 mM). A measurement of the fluorescence (reading at 440 nm after excitation at 370 nm) is then carried out on each sample. The results are expressed in the form of a fluorescence read (sample)/maximum fluorescence observed (control without scavenger compound, D=20) ratio.
A solution of human albumin (50 g/l) and of glucose (500 mM) in phosphate buffer (100 mM, pH=7.4) is prepared. 1000 μl of the previous solution are then immediately charged to tubes, each containing one of the compounds tested (50 μmol). The resulting solutions are homogenized (vortex for 10 sec) and then immediately filtered through a sterile 0.2 μm membrane into sterile capped Eppendorf tubes (1.5 ml), under a vertical laminar flow filtering hood. The tubes are then stoppered and placed at 37° C., in the dark, for 20 days. After a return to ambient temperature (22° C.), a measurement of the fluorescence (λex=370 nm, λem=440 nm) is carried out on 200 μl of each sample.

[2] = Scavenging of glyoxal (GO) generated from glucose incubated at 37° C., LC-MS assay after 2,3-diaminonaphthalene derivatization; details: for GO scavenging activity (in words): compound 100 μM added on 7th day, FIG. 1; for level of GO observed after 14 days: glucose 50 mM, phosphate buffer pH 7.4, 37° C., compound added on 7th day, final concentration 100 μM
Protocol: (§1) An aqueous solution of glucose (50 mM in phosphate buffer at 100 mM, pH=7.4) is incubated at 37° C. for 14 days in order to “naturally” generate glyoxal (GO) and methylglyoxal (MGO). The compound tested is introduced on the 7th day (final concentration=100 μM). The GO and MGO concentrations of the medium are measured at regular intervals by LC-MS assaying, after derivatization with 2,3-diaminonaphthalene, in order to determine the effect of the compound tested.
(§2) The results of the assays are compared with those obtained without the addition of scavenger compound (control) and with those obtained during the addition of a reference compound (aminoguanidine, D-Dap, D-Dap-L-Leu, 8-hydroxyquinoline).
(§3) A solution S0 of glucose (50 mM) in phosphate buffer (100 mM, pH=7.4) is prepared and then filtered through a sterile 0.2 μm membrane into a sterile Falcon tube, under a vertical laminar flow filtering hood. 1000 μl of solution S0 are then charged to several sterile capped Eppendorf tubes (1.5 ml) which are then stoppered and placed at 37° C., in the dark, for 14 days (“control” series). The rest of the solution S0 is incubated in the same way, in a Falcon tube. The Eppendorf tubes are then removed, one by one, at regular intervals (approximately 24 h) and are immediately placed at −20° C. while awaiting analysis.
(§4) On D=7, an aqueous solution S1 of the compound tested (5 mM) is prepared and then filtered through a sterile 0.2 μm membrane into a sterile Falcon tube, under a vertical laminar flow filtering hood. A mixture of the solution S1 (140 μl) and of the remaining solution S0, incubated for 7 days at 37° C. (6860 μl), is then prepared before being divided up between 6 sterile Eppendorf tubes (6×1000 μl) which are subsequently stoppered and placed at 37° C., in the dark, for 7 days (“test” series). These tubes are removed, one by one, at regular intervals (approximately 24 h) and are immediately placed at −20° C. while awaiting analysis. On D=14, the tubes of the “control” and “test” series are thawed and are each treated with 100 μl of a solution of 2,3-diaminonaphthalene (10 mM) in order to derivatize the GO and the MGO, respectively in the form of GO-DAN and of MGO-DAN. After homogenization (vortex for 10 sec), the tubes are left to stand for 24 h, at 20° C., in the dark. The GO-DAN and the MGO-DAN are then assayed in each sample by LC-MS (Shimadzu LCMS-2020), by external calibration carried out with standard solutions of GO-DAN and of MGO-DAN, according to the following conditions. Column: Shim-pack XR-ODS II (75×2 mm, 80 Å), temperature: 40° C., eluent: water/methanol (50/50)+0.1% of formic acid, flow rate: 300 μl/min, analysis time: 10 min, injection volume: 1 μl, detection: ESI+ in SIM mode (m/z=181.1 and 195.1) with the following parameters: interface voltage=4.5 kV, DL voltage=10 V, Q-array DC=0 V, Q-array RF=40 V (for m/z=181.1) or 10 V (for m/z=195.1). The GO-DAN and MGO-DAN compounds are respectively detected at the retention times of 3.9 min and 5.4 min.

[3] = Scavenging of methylglyoxal (MGO) generated from glucose incubated at 37° C., LC-MS assay after 2,3-diaminonaphthalene derivatization; details: for MGO scavenging activity (in words): compound 100 μM added on 7th day, FIG. 2; for level of MGO observed after 14 days: glucose 50 mM, phosphate buffer pH 7.4, 37° C., compound added on 7th day, final concentration 100 μM
Protocol: as §1, §2, §3, §4

Structure (SMILES)	relative fluorescence (fluorescence read/maximum fluorescence of control D=20) [1] [%]	GO scavenging activity (in words) [2]	MGO scavenging activity (in words) [3]	level of GO observed after 14 days [2] [µM]	level of MGO observed after 14 days [3] [µM]
Oc1cccc2cccnc12 [8-hydroxyquinoline]	40	–	–	–	–
CC1CCN(C(=O)[C@H](N)CN)CC1 [Compound 4c]	–	activity close to or even greater than that of the reference compound, aminoguanidine	activity close to or even greater than that of the reference compound, aminoguanidine	–	–
NC[C@@H](N)C(=O)N1CCOCC1 [Compound 4e]	19	–	–	–	–
NC[C@@H](N)C(=O)N1CCN(C2CCCCC2)CC1 [Compound 4h, (2R)-2,3-diamino-1-(4-cyclohexylpiperazin-1-yl)propan-1-one]	–	activity close to or even greater than that of the reference compound, aminoguanidine	activity close to or even greater than that of the reference compound, aminoguanidine	–	–
NC[C@@H](N)C(=O)N1CCN(C(=O)[C@H](N)CN)CC1 [Compound 6a, (2R,2′R)-1,1′-(piperazine-1,4-diyl)bis(2,3-diaminopropan-1-one)]	–	activity close to or even greater than that of the reference compound, aminoguanidine	activity close to or even greater than that of the reference compound, aminoguanidine	–	–
NC[C@@H](N)C(=O)N1CCN(Cc2ccc(O)c3ncccc23)CC1 [Compound 11, (2R)-2,3-diamino-1-{4-[(8-hydroxyquinolin-5-yl)methyl]piperazin-1-yl}propan-1-one]	3	good capacity for scavenging of GO and of MGO	good capacity for scavenging of GO and of MGO	3.0	0.19
NC[C@@H](N)C(=O)N1CCN(C(=O)Cc2ccc(O)c3ncccc23)CC1 [Compound 13, (2R)-2,3-diamino-1-{4-[2-(8-hydroxyquinolin-5-yl)acetyl]piperazin-1-yl}propan-1-one]	2	good capacity for scavenging of GO and of MGO	good capacity for scavenging of GO and of MGO	2.6	0.12
C[C@@H](N)C(=O)N1CCOCC1 [D-Ala-Morpholine]	78	–	–	–	–
CC(C)C[C@H](NC(=O)[C@H](N)CN)C(=O)O [D-Dap-L-Leu] (HELM PEPTIDE1{[NC[C@@H](N)C(=O)[*:2]].L}$$$$V2.0)	43	–	–	–	–
N=C(N)NN [aminoguanidine, reference compound]	3	–	–	68.4	1.20
NCCC(=O)N[C@@H](Cc1cnc[nH]1)C(=O)O [carnosine]	60	–	–	–	–
